Measurements from patent US11446287B2, “Compounds and methods for EP300 or CBP modulation and indications therefor” (Opna Immuno-Oncology SA, priority 2019, dated 2022).

biological target: T1, Recombinant human BRD4 containing dual bromodomains (BRD4-BD12 (1-477)) (Homo sapiens, UniProt O60885); assay: BRD4 Alphascreen binding assay
T1 construct: Recombinant human BRD4 containing dual bromodomains (BRD4-BD12 (1-477)); made in house; host or cells: E. coli BL21-CodonPlus (DE3), modified pET vector
Summary of the method: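 His-tagged human BRD4 tandem bromodomains (1-477, E. coli) incubated 1 h at room temperature with biotinylated tetra-acetylated H4 (1-21) peptide and compound in HEPES pH 7.5 buffer with 2 mM DTT. AlphaScreen signal read 30 min after adding beads (7.5 μg/ml); IC50 from four-parameter fit after normalization to controls.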

`Cc1noc(C)c1-c1cnc2c(C(O)(C3CC3)C3CC3)cn(-c3ccc(C(=O)O)cc3OC(F)(F)F)c2c1` [P-0163, 4-(3-(dicyclopropyl(hydroxy)methyl)-6-(3,5-dimethylisoxazol-4-yl)-1H-pyrrolo[3,2-b]pyridin-1-yl)-3-(trifluoromethoxy)benzoic acid] and `Cc1noc(C)c1-c1cnc2c(c1)c(-c1ccc(C(=O)O)cc1OC(F)(F)F)cn2C(C1CC1)C1CC1` [P-0156, 4-(1-(dicyclopropylmethyl)-5-(3,5-dimethylisoxazol-4-yl)-1H-pyrrolo[2,3-b]pyridin-3-yl)-3-(trifluoromethoxy)benzoic acid] fall in the same range of IC50: 8 to 1000 µM for the first, 8 to 1000 µM for the second.

First: Cc1noc(C)c1-c1cnc2c(c1)c(-c1ccc(C(=O)O)cc1C(F)(F)F)cn2[C@@H](C)c1ccccn1 [P-0116, (S)-4-(5-(3,5-dimethylisoxazol-4-yl)-1-(1-(pyridin-2-yl)ethyl)-1H-pyrrolo[2,3-b]pyridin-3-yl)-3-(trifluoromethyl)benzoic acid]
Second: Cc1noc(C)c1-c1cnc2c(-c3cnn(C)c3)c(C(F)(F)F)n([C@@H](C)c3ccccn3)c2c1 [P-0160, (S)-3,5-dimethyl-4-(3-(1-methyl-1H-pyrazol-4-yl)-1-(1-(pyridin-2-yl)ethyl)-2-(trifluoromethyl)-1H-pyrrolo[3,2-b]pyridin-6-yl)isoxazole]
The IC50 of the first is higher: 1 to 8 µM for the first, 0.0001 to 1 µM for the second. The second is the more potent here.

Compared with `Cc1noc(C)c1-c1cnc2c(-c3ccccc3Cl)cn(C(C)(c3ccccn3)c3ccccn3)c2c1` [P-0155, 4-(3-(2-chloropheny1)-1-(1,1-di(pyridin-2-yl)ethyl)-1H-pyrrolo[3,2-b]pyridin-6-yl)-3,5-dimethylisoxazole], `Cc1noc(C)c1-c1cnc2c(C(=O)C3CCC3)cn(-c3c(Cl)cc(C(=O)O)cc3Cl)c2c1` [P-0121, 3,5-dichloro-4-(3-(cyclobutanecarbonyl)-6-(3,5-dimethylisoxazol-4-yl)-1H-pyrrolo[3,2-b]pyridin-1-yl)benzoic acid] is higher in IC50: 0.0001 to 1 µM for the first, 1 to 8 µM for the second.

First: Cc1noc(C)c1-c1cnc2c(CC3CCC3)cn(-c3ccc(C(=O)O)c4ccoc34)c2c1 [P-0110, 7-(3-(cyclobutylmethyl)-6-(3,5-dimethylisoxazol-4-yl)-1H-pyrrolo[3,2-b]pyridin-1-yl)benzofuran-4-carboxylic acid]
Second: Cc1noc(C)c1-c1cnc2c(c1)c(-c1cccc(C(=O)O)c1)cn2CC1CC(F)(F)C1 [P-0101, 3-(1-((3,3-difluorocyclobutyl)methyl)-5-(3,5-dimethylisoxazol-4-yl)-1H-pyrrolo[2,3-b]pyridin-3-yl)benzoic acid]
The IC50 of the first is lower: 1 to 8 µM for the first, 8 to 1000 µM for the second. The first is the more potent here.
